Source: patent publication US10779532B2, “Methods and compositions for killing of insect pest eggs” (North Carolina State University, priority 2016, dated 2020)

Experiments:
eggs = assay: Residual activity against eggs; type: in vivo; conditions: after application
[1] = Evaporation of 2-undecanone after application; type: physicochemical; conditions: typically
insect pest eggs = assay: Exposure of insect pest eggs to formulations, percent killed; type: in vivo
Source text: As well understood, the percentage of eggs killed may depend on the concentration of the ovicide and the exposure time to the ovicide (e.g., the time for applying). Thus, applying or contacting of the compositions and formulations of the invention generally results in the killing of about 45% to about 100% (e.g., about 45, 50, 55, 60, 65, 70, 75, 80, 85, 90, 95, 100%) of the insect pest eggs for any given time period. However, the compositions and formulations are shown to work very quickly and efficiently, resulting in a killing of 100% of the insect pest eggs following a very short contact or application time. Thus, in some embodiments, a one to five second exposure results in a 100% kill of the insect pest eggs. In some embodiments, exposure of insect pest eggs to a formulation of 1% 2-undecanone and 1% DE for 3 seconds kills about 100% of the insect pest eggs. In some embodiments, exposure of insect pest eggs to a formulation of 8% 2-undecanone and 1% DE for 1 second kills about 100% of the insect pest eggs. In some embodiments, exposure of insect pest eggs to a formulation of 5% 2-undecanone for 1 second kills about 70% of the insect pest eggs. In some embodiments, exposure of insect pest eggs to a formulation of 15% 2-undecanone for about one to about five second kills about 100% of the insect pest eggs. […]

cotton bollworm eggs = assay: Killing insect eggs, cotton bollworm model system (3 second dip, egg hatch over 4 days); type: in vivo; conditions: 2-undecanone from 1 to 8% in absolute ethanol, hatch assessed 4 days, highest level of the dose response
Source text: Due to their obligate parasitic lifestyle, lice, head lice, in particular, are very difficult to obtain. Thus, bollworm eggs were used in place of lice eggs for the experiments showing efficacy of the treatments described herein. […] Therefore, it is understood that if the treatment works on bollworm eggs, it will also work on the eggs of head lice. Further, the experiments using body lice, a recognized proxy for head lice, confirmed the effectiveness of the treatment with the formulations of this invention.
All treatments were conducted by dipping the bollworm eggs in the different treatments for 3 seconds, allowing the eggs to dry at room temperature, and then assessing egg hatch for the following 4 days. The eggs typically hatch under these conditions in 2.5 days. The solvent used in these experiments was absolute ethanol.

lice = assay: Killing of lice stages; type: in vivo; conditions: all stages of the lice

In the case of CCCCCCCCCC(C)=O [2-undecanone], the “residual activity against eggs” value (eggs) is reported as “minimal residual activity”, the time to evaporate [1] is reported as no more than 30 min and the “insect pest eggs killed” value (insect pest eggs; 5% 2-undecanone, exposure 1 second) is reported as “about 70%”. For the same compound, the “insect pest eggs killed” value (insect pest eggs; 15% 2-undecanone, exposure about one to about five second) was “about 100%”, the egg mortality (cotton bollworm eggs) was “about 90%” and the “killing of lice stages” value (lice) was “kill all stages of the lice”.
